Like-named read-outs stand apart in the source and are kept apart here.
Columns and labels:
[1] = Channels in planar lipid bilayers at pH 7.0 after fusion with unilamellar proteoliposomes containing the protein; assay type: biochemical; details: for conductance pattern / ion selectivity of channel / rectification: neutral pH; for ion selectivity of channel: proteoliposome fusion; for rectification: symmetrical KCl
Excerpt: (§1) The Bax and Bcl-2 polypeptides used in the ion channel studies reported herein were recombinant murine Bcl-2 and Bax polypeptides lacking the C-terminal signal-anchor membrane targeting sequence (Bcl-2ΔC21, amino acids 1-218 of SEQ ID NO:9 and BaxΔC19, amino acids 1-173 of SEQ ID NO:6). These deletion derivatives, also referred to herein as BaxΔTM and Bcl-2ΔTM, were used to avoid any interference of the C-terminal signal-anchor membrane targeting sequence with the capacity of internal α helices to mediate insertion into artificial lipid bilayers.
(§2) Planar lipid bilayers were prepared from soybean lipids by chloroform extraction of Azolectin Type II (10-20% choline, 80-90% negatively charged lipids) (Sigma). The chloroform was removed with a stream of nitrogen and the lipids stored under N2 until dissolved in decane at 30 mg/ml. This preparation was then stored under nitrogen. The 0.25 mm orifice of a polystyrene cuvette (Warner Instruments) was pretreated with 2 μl of the decane lipid solution and the solvent allowed to evaporate. The cuvette was then placed into a bilayer chamber and connected to Bilayer Clamp BC525-a (Warner Instruments) by Ag/AgCl electrodes via agar salt bridges. Data were collected using an Axoscope (Axon Instruments Software), archived on video tape using a Neurocorder DR-484 (Neuro Data Instruments), and analyzed using Origin (Microcal) and pClamp6 (Axon Instruments Software). Slope conductance was calculated by the method of least squares and the variance is given. Ion selectivities were calculated using the reversal potential and the Goldman equation. The reversal potential means the zero-current potential of a bilayer membrane. The reversal potential is zero with no ion gradient and the magnitude of the potential in the presence of an ion gradient reflects the cation versus anion selectivity of the bilayer.
Proteoliposomes for fusion with a planar lipid bilayer were prepared as follows. Purified protein (0.25 μg) was added to […] lipid (Azolectin) in 20 μl of KCl buffer (150 mM KCl, 10 mM HEPES, pH 7.0). This mixture was placed into a dialysis bag with a molecular weight cutoff of 12 KDa. After 16 hours dialysis in 3000 volumes of 150 mM KCl (10 mM HEPES, pH 7.0) the proteoliposome suspension was removed and placed on ice for immediate use. The bilayer was set up with a 450:150 cis to trans KCl gradient to identify the ion selectivity of the initial currents. Fusion was initiated by adding 5-20 μl of lipid vesicles (only 5-20 ng of protein) to the cis bilayer chamber with mixing. Non-fused proteoliposomes were removed from the compartments and solutions exchanged as described above.
Control bilayers containing Bcl-2 or Bax channels were prepared by fusion of unilamellar proteoliposomes with incorporated Bcl-2ΔTM or BaxΔTM with an established planar bilayer as described in Example 4. Test bilayers containing Bcl-2 channels were prepared in the same manner to which an 11 mer Bax peptide (SEQ ID NO:1) with known death agonist activity was added at 20, 50 or 100 μM. A voltage of 80 mV was applied to each control and test channel and its conductance measured for a period of 12 to 16 seconds and the frequency that each channel was measured at a particular conductance level (pA) was calculated. The data, representing about 500,000 measurements, are shown as histograms in FIGS. 8A-8E. […]

[2] = Cl- release (efflux) from KCl loaded synthetic lipid vesicles as a function of pH; assay type: biochemical
Description: This example illustrates that Bax and Bcl-2 induce the release of ions from synthetic lipid vesicles.
Unilamellar vesicles composed of 40% 1,2 dioleoyl phosphatidyl glycerol and 60% 1,2 dioleoyl phosphatidyl choline (Avanti Polar Lipids) were prepared in 100 mM KCl, 2 mM CaNO3 and 10 mM dimethylglutarate, pH 5.0 as previously described (Peterson et al., J. Membr. Biol. 99:197-204, 1987). The resulting liposomes were diluted 200-fold to a concentration of 0.05 mg/ml in 100 mM KNO3, 2 mM CaNO3 and 10 mM dimethylglutarate which was titrated to pH 3.5, 4.0, 4.5, 5.0, 5.5 or 6.0 with NaOH or with acetic acid. BaxΔC19 and Bcl-2ΔC21 were added at a concentration of 500 ng/ml and Cl^- efflux was measured with a Cl^- combination ion selective electrode (Accumet). Triton X-100 (0.1%) was added to release the total encapsulated Cl^- at the times indicated by the arrows in FIG. 1. The total amount of Cl^- released was quantitated by a calibration curve produced by successive additions of 25 μM KCl.

[3] = cited from earlier work
[4] = cited from earlier work; remark: listed apart in the source
[5] = Low pH channel formation after addition of protein to an established planar lipid bilayer; assay type: biochemical; details: for initial current (direction): 450/150 mM KCl cis to trans, pH 4.0, spontaneous (OS); for conductance of initial channel: pH 4.0, initial current; for effect of shifting pH on conductance and selectivity: pH 4.0 to 7.0; for PK/PCl after pH shift to 7.0: pH 7.0 after insertion at pH 4.0; for ion selectivity of channel: low pH insertion
Excerpt: as §1, §2
Bilayers were formed by spreading with a polished glass rod and allowed to thin to a capacitance of 0.4 μF/cm^2 at which point the noise was typically 0.2 pA and the leak conductance was 20 pS. The salt concentrations were initially 450 mM KCl in the cis chamber (1.0 ml) and 150 mM KCl in the trans chamber (0.5 ml) to permit identification of spontaneous initial currents. Outward (positive) currents were defined as K^+ moving cis-to trans. All solutions were buffered to pH 4.0 with 10 mM K-acetate. BaxΔTM or Bcl-2ΔTM (approx. 1 μg) was added to the cis chamber with mixing. After initial currents were identified the soluble protein was usually removed by exchanging the cis chamber contents with aliquots of buffer.

[6] = 450/150 mM KCl gradient, pH 7.0
[7] = pH 4.0, same quantities of each protein
[8] = stated as behaviour like Bax / Bcl-2 (criterion)
[9] = planar lipid bilayers, pH 7.0 (Antonsson et al.)
[10] = physiological pH (Antonsson et al.)

Bax: recombinant murine Bax polypeptide lacking the C-terminal signal-anchor membrane targeting sequence (amino acids 1-173 of SEQ ID NO:6)
less frequent conductance peak ([1]; 80 mV, no peptide): about 65 pA | PK/PCl from reversal potential [1, 6]: 0.32 | initial current (direction) [1, 6]: inward (PK <PCl) current | duration of periodic channel closing ([1]; -70 mV, symmetrical 150 mM KCl): 20 to 30 ms | conductance pattern [1]: simpler single channel conductance pattern | ion selectivity of channel [1]: Cl^- -selective | channel conductance at negative voltages ([1]; symmetrical 150 mM KCl, pH 7.0): 1.5 (sd 0.3, n=3) nS | rectification [1]: Mild outward rectification | highest pH with retained activity (ion release from liposomes) [2]: ≤ 5.5 pH | pH of maximum release of Cl- ([2]; 500 ng/ml, FIG. 1A): 4.0-4.5 pH | Cl- release from KCl loaded lipid vesicles ([2]; pH 3.5): 41% | release of Cl-, decrease from maximum ([2]; pH 3.5, 500 ng/ml, FIG. 1A): 50% | Cl- release from KCl loaded lipid vesicles [2, 7]: 75% | Cl- release from KCl loaded lipid vesicles ([2]; pH 5.0): 41% | release of Cl-, decrease from maximum ([2]; pH 5.0, 500 ng/ml, FIG. 1A): 50% | release of Cl-, decrease from maximum ([2]; pH 5.5, 500 ng/ml, FIG. 1A): less than 10% | release of Cl- on pH shift ([2]; pH 6.0 shifted to pH 4.0, FIG. 1C): a rapid release of Cl^- | ratio of channel indicator release at pH 3.5 and pH 4.0 (R3.5/4.0) [2, 8]: less than 1 | ion selectivity [3, 9]: cation selective | permeability ratio of Na+ to Cl- [3, 9]: about 2.1 | ion selectivity ([3]; planar lipid bilayers, pH 7.0 (Antonsson et al.), listed as BaxΔTM): slightly cation selective | pore-forming activity in liposomes [4, 10]: intrinsic pore-forming activity | initial current (direction) [5]: initial, inward current | conductance of initial channel ([5]; 450/150 mM KCl): 22 (s.d. 5, n=5) pS | conductance of initial channel ([5]; 450/150 mM KCl, listed as BaxΔTM): 22 pS | time to appearance of initial current ([5]; 450/150 mM KCl, pH 4.0, listed as BAXΔTM): ≤ 10 min | time to appearance of initial current ([5]; 450/150 mM KCl, pH 4.0, listed as BaxΔTM): Four | duration of channel transition ([5]; +40 mV, pH 4.0): ~ 5 mins | current level, C and OS ([5]; +40 mV, transition, pH 4.0): 0 pA | current level, O1 ([5]; +40 mV, transition, pH 4.0): 2.36 pA | current level, O1+2 ([5]; +40 mV, transition, pH 4.0): 8.81 pA | current level, O2 ([5]; +40 mV, transition, pH 4.0): 6.4 pA | current level, C ([5]; -40 mV, transition, pH 4.0): 0 pA | current level, O1 ([5]; -40 mV, transition, pH 4.0): -10.9 pA | current level, O1+2 ([5]; -40 mV, transition, pH 4.0): -30.5 pA | current level, OS ([5]; -40 mV, transition, pH 4.0): -2.14 pA | voltage dependence ([5]; hyperpolarization to -40 mV, pH 4.0): increased the channel activity | slope conductance of final stable channel ([5]; pH 4.0): 0.731±0.01 nS | PK/PCl (Cl- selectivity, average over current levels) ([5]; pH 4.0, from reversal potential): 0.10 | effect of shifting pH on conductance and selectivity [5]: altered the conductance and selectivity of Bax | current-voltage relation ([5]; pH 7.0): linear with voltage | conductance after pH shift to 7.0 ([5]; pH 7.0, 450/150 mM KCl gradient): 0.329±0.002 nS | conductance after pH shift to 7.0 ([5]; pH 7.0, both chambers 150 mM KCl): 0.302±0.008 nS | PK/PCl after pH shift to 7.0 [5]: 0.5 | time from initial appearance to channel progression ([5]; planar bilayers): 2 to 4 min | ion selectivity of channel ([5]; planar bilayers): consistent anion selectivity | ion selectivity of channel ([5]; planar bilayers, listed as BAX): Cl^- selective

B1: Bcl-2: recombinant murine Bcl-2 polypeptide lacking the C-terminal signal-anchor membrane targeting sequence (amino acids 1-218 of SEQ ID NO:9) (protein)
chain: MAQAGRTGYDNREIVMKYIHYKLSQRGYEWDAGDADAAPLGAAPTPGIFSFQPESNPMPAVHREMAARTSPLRPLVATAGPALSPVPPCVHLTLRRAGDDFSRRYRRDFAEMSSQLHLTPFTARGRFATVVEELFRDGVNWGRIVAFFEFGGVMCVESVNREMSPLVDNIALWMTEYLNRHLHTWIQDNGGWDAFVELYGPSMRPLFDFSWLSLKTLL
single channel current ([1]; 450/150 mM KCl gradient, FIG. 5A): 5 pA | PK/PCl from reversal potential [1, 6]: 2.4 | initial current (direction) [1, 6]: outward (K^+) current | conductance pattern [1]: complex multichannel conductance pattern | ion selectivity of channel [1]: K^+ -selective | voltage dependence of open channel current ([1]; symmetrical 150 mM KCl): linear | hyperpolarization beyond which a channel closure occurs ([1]; symmetrical 150 mM KCl, FIG. 5C): more than -70 mV | slope conductance ([1]; symmetrical 150 mM KCl, pH 7.0): 1.08 (s.d. 0.10, n=5) nS | rectification [1]: no rectification | inactivation of Cl- release ([2]; by pH 5.0, 500 ng/ml, FIG. 1B): complete inactivation | Cl- release from KCl loaded lipid vesicles ([2]; pH 3.5): 81% | relative activity of Bcl-2 versus Bax (Cl- release) ([2]; pH 3.5): twice as active as Bax | Cl- release from KCl loaded lipid vesicles [2, 7]: 75% | Cl- release from KCl loaded lipid vesicles ([2]; pH 5.0): 7% | release of Cl- on pH shift ([2]; pH 5.0 shifted to 4.0, FIG. 1D): activated the release of Cl^- | ratio of channel indicator release at pH 3.5 and pH 4.0 (R3.5/4.0) [2, 8]: about 1.0 | ratio of indicator release at pH 4.0 and 5.0 (R4.0/5.0) [2, 8]: greater than 7.0 | primary channel conductance ([3]; lipid bilayers, physiological pH (Schendel et al.)): 18±2 pS | ion selectivity ([3]; pH 5.4 (Schendel et al.)): cation selective | multiple conductance states ([3]; planar lipid bilayers, physiological pH): multiple channel conductance states | pore forming activity in lipid vesicles ([4]; pH above 5.5): little or no detectable pore forming activity | insertion into synthetic lipid vesicles ([4]; pH values below 5.5): insert into synthetic lipid vesicles at pH values below 5.5 | antagonism of BaxΔTM pore-forming activity in liposomes [4, 10]: antagonized | initial current (direction) [5]: initial outward | PK/PCl of initial current ([5]; 450/150 mM KCl, pH 4.0): 3.9 | magnitude of initial current ([5]; 450/150 mM KCl, pH 4.0): 0.85±0.06 pA | time to appearance of initial current ([5]; 450/150 mM KCl, pH 4.0): ≤ 5 min | conductance of initial channel ([5]; 450/150 mM KCl): 80.3±0.06 pS | conductance of initial channel ([5]; 450/150 mM KCl, listed as Bcl-2ΔTM): 80 pS | duration of initial state ([5]; pH 4.0): 2 to 5 min | slope conductance of final stable channel ([5]; pH 4.0): 1.90±0.06 nS | duration of channel open periods ([5]; pH 4.0, with brief closures): 5 to 10 s | effect of shifting pH on conductance and selectivity [5]: not Bcl-2 | PK/PCl after pH shift to 7.0 [5]: 6.5 | conductance of large pore after pH shift to 7.0 ([5]; pH shifted to 7.0, FIG. 4E): 2.14±0.04 nS | ion selectivity of channel ([5]; planar bilayers): mild cation selectivity
